Assay results from patent publication US20230190887A1, “TARGETING G3BP AGGREGATION TO PREVENT NEURODEGENERATION” (priority 2019, published 2023).

Tests used:
E12.5 motor neurons = assay: MPP+-induced degeneration of motor neuron neurites (in vitro ALS model); format: cell-based, mouse; details: DIV7 E12.5 motor neurons, 100 μM MPP+ 16-18 hours, with 10 μM peptide
Method: Non-treated cultures were used as controls (FIG. 3A).
(A) Quantification of mitotoxin/neurotoxin MPP+-induced degeneration of DIV7 E12.5 motor neuron neurites after exposure of cultures to 100 μM MPP+ and either 10 μM 190-208 G3BP1 or 168-189 control peptide. As controls, neurons treated with solvents were used. (B) Representative images of G3BP1 (green) and NF-labeled (red) E12.5 motor neurons under control or after treatment with 100 μM MPP+ [scale bar=10 μm]. (C) distribution of sizes of endogenous G3BP1 aggregate per 100 μm neurite is shown as indicated bins from motor neurons cultures as treated in (B). (N≥80 neurites over three repetitions; by one-way ANOVA with Tukey HSD post-hoc). […] (D) Endogenous G3BP1 aggregate sizes per 100 μm neurite indicated as bins for motor neurons either untreated or treated with MPP+ alone or with addition of 10 μM 190-208 G3BP1 or 168-189 control peptide. […] (N≥90 over 3 cultures; by one-way ANOVA with Tukey HSD post-hoc)

[1] = system: TIA1, G3BP1 and TDP43 granules in E12.5 motor neurons; assay: Stress granule protein granules in neurites of arsenite-treated motor neurons; format: cell-based, mouse; details: sodium arsenite 0.5 mM 30 minutes, then 10 μM peptide; for number of flag-TDP43 granules greater than 2 μm^2 per 100 μm of neurite: WT and ALS mutant flag-TDP43; for number of large TIA1-GFP granules (>2 μm^2) in neurites: WT and mutant TIA1-GFP
From the text: To further evaluate whether mutant TIA1 and TDP43 protein aggregates are affected by G3BP1 190-208 peptide, the inventors expressed the mutant proteins in embryonic motor neurons and assessed granules formed in neurites with or without arsenite treatment either in the presence of G3BP1 190-208 or control 168-189 peptide.
FIG. 6: Cell permeable G3BP1 190-208 peptide decreases granules formed by endogenous TIA1 and TDP43 and exogenous TDP43 and TIA1 mutants in motor neurons after sodium arsenite exposure. (A) Embryonic motor neurons isolated from E12.5 mouse embryos were exposed to sodium arsenite (0.5 mM) for 30 minutes and then treated with 10 μM 190- 208 or […] peptide. After fixation endogenous TIA1 was visualized by immunostaining. The number of TIA1 granules greater than 2 μm^2 per 100 μm of neurite were measured. (B) E12.5 motor neurons were treated as described in (A) and immunostaining was used to detect endogenous G3BP1 protein. The number of G3BP1 granules greater than 2 μm^2 per 100 μm of neurite were measured. […] (C) E12.5 motor neurons expressing TIA1-GFT or ALS/FTD-associated mutants TIA1-A381T, TIA1-E384K were treated with sodium arsenite (0.5 mM) for 30 minutes followed by treatment with either 10 μM 190-208 G3BP1 or 168-189 control peptide. The number of cells containing TIA1-GFP puncta were measured 2 μm^2 per 100 μm of neurite and results are reported relative to non-treated controls. The number of TIA1-GFP granules in neurites decreased for WT and ALS/FTD mutants after treatment with 190-208 G3BP1 as compared to the 168-189 control peptide treated cells. (I)) E12.5 motor neurons expressing flag-tagged wildtype TDP43 or ALS-associated mutants TDP43-M337V and TDP43-Q331.K were treated with sodium arsenite (0.5 mM) for 30 minutes followed by treatment with either 10 μM 190-208 G3BP1 or 168189 control peptide. Flag-TDP43 was detected by immunostaining using the anti-flag-antibody. The number of flag-TDP43 granules greater than 2 μm^2 were measured per 100 μm of neurite and the results are reported relative to non-treated controls. The number of Flag-TDP43 granules in neurites were decreased after treatment with 190-208 G3BP1 peptide as compared to the 168-189 control peptide in both WT and ALS/FTD mutants expressing cells. ([…] over 3 cultures; by two-way ANOVA with Tukey HSD post-hoc),

[2] = system: motor neurons generated from human induced pluripotent stem cells; assay: Neurite growth of hiPSC-derived motor neurons; format: cell-based; details: 20 μM peptide, assessed 24 h later
Method: Human induced pluripotent stem cells (hiPSCs) were maintained in dishes coated with Matrigel (Corning) in Flex8 media (ThermoFisher). hiPSCs were differentiated into human motor neurons using a directed differentiation protocol optimized by Kevin Eggan. 7000 neurons/well were plated on laminin—or CSPG coated 96 well plates. 100 μl at 10 μg/ml Laminin (ThermoFisher) and 25 ng CSPGs (Millipore) were used per well.
For peptide treatments, 10 μM Tat-fused peptides were added to dissociated DRG cultures at 2 or 12 h after plating. Neurite outgrowth was assessed 24 h after addition of peptides. For the cortical cultures, 10 μM peptide was applied to the axonal compartment at 3 d in vitro (DIV) and axonal growth was assessed at 6 DIV. For iMotor neurons, 20 μM peptides were immediately added and neurite growth was assessed 24 h later.
For neurite outgrowth, images from 60 h DRG cultures were analyzed for neurite outgrowth using WIS-Neuromath. Axon morphology was visualized using GFP and/or NF immunofluorescence as described. Differentiated hiPSC neuron image acquisition and neurite length quantification was performed using Arrayscan XTI (Thermo Fisher).

[3] = system: TDPΔNLS MN-muscle co-cultures; assay: Co-culture contraction analysis; format: cell-based, mouse; details: 20 μM G3BP1 peptides in NMJ compartment
Method: Muscles in co-culture were kept in BA medium for 7 days. To aid NMJ formation, media in all compartments was then replaced to poor neurobasal (PNB) medium, which contained only 1% P/S and 1% Glutamax. Doxycycline was applied to TDP-43ΔNLS cultures only at the proximal MN compartment, in a concentration of 0.1 μg/mL, immediately after plating and throughout the entire experimental timeline. For TDPΔNLS recovery experiments (FIGS. 7-8), Doxycline was […] at the proximal MN compartment after 5 DIV, and the cultures were grown until 11 DIV. […] NMJ activity was assessed by quantifying the percent of innervated and contracting myocytes in co-culture as previously described36. Briefly, after 12 days in co-culture, phase-contrast time lapse image series were acquired at a frame rate of 25 frames-per-second (25 FPS) using a X20 air objective. During imaging, cultures were maintained in controlled temperature and CO2 environment. For obtaining contraction time traces, we used the “Time Series Analyzer V3” plugin for FIJI ImageJ V.2.0.0, and marked a region of interest on a small, high contrast and mobile region on the muscle, and then obtained the mean values for each time point.

## YGNKKNNNQNNN-VVEPEPEPEPEPEPEPVSE [G3BP1 190-208 peptide]
E12.5 motor neurons
  MPP+-induced degeneration of motor neuron neurites: prevents mitotoxin-induced degeneration
E12.5 motor neurons; listed as G3BP1 190-208
  MPP+-induced degeneration of motor neuron neurites: protected against MPP+-induced degeneration
[1]
  number of flag-TDP43 granules greater than 2 μm^2 per 100 μm of neurite: reversed
  number of large TIA1-GFP granules (>2 μm^2) in neurites: decrease in the number of large granules
  number of endogenous TIA1 and G3BP1 granules greater than 2 μm^2 per 100 μm of neurite: reverses the increase number of these larger granules
[1]; listed as 190-208 G3BP1 peptide
  number of flag-TDP43 granules greater than 2 μm^2 per 100 μm of neurite: decreased
[1]; listed as 190-208 G3BP1
  number of large TIA1-GFP granules (>2 μm^2) in neurites: decreased
[1]; listed as 190-208
  number of endogenous TIA1 and G3BP1 granules greater than 2 μm^2 per 100 μm of neurite: significantly decreased levels of TIA1 and G3BP1 granules
[2]
  neurite length: significantly increased neurite length
[3]
  percent of innervated muscles that contract: reversed
